{
  "source": "patent US10849875B2",
  "about": "“Cancer specific lipid targeted peptidomimetics” (University of Houston System, priority 2015, dated 2020)",
  "key": {"HBEC3kt cells": {"tested_on": "HBEC3kt cells", "assay": "MTS cell viability assay", "assay_type": "cell-based, human", "details": "serial dilutions", "protocol": "(§1) After confirming the binding and specificity of the PPS1 on HCC4017 lung cancer cells, whether this compound has any biological effects on HCC4017 lung cancer cells was assayed. The gold standard cell viability (MTS) assay was used. HCC4017 cells and HBEC30kt and HBEC3kt cells were grown in 96 well plates on day 1, then treated by serial dilution of PPS1 and control compound C462 on day 2, and the viable cell count was measured using MTS reagent on day 3. […] On one of the repetitive experiments of this assay, Cystinylated-PPS1 compound was included (FIG. 6A). This was the intermediate compound used to attach the FITC-malemide for binding assays described previously. […] The only difference between this Cystinylated-PPS1 and the original PPS1 compound was just a single cysteine amino acid at the C-terminal. […]\n(§2) A homo-dimeric version of PPS1 was synthesized. […] The resulting dimeric version of the PPS1 compound, PPS1D1 (FIG. 6C), and the analogous dimeric versions of scrambled PC2, PC2D1 (FIG. 6E), and control compound C462, PC462D1 (FIG. 82), were then evaluated for activity. […] As described above, HCC4017 cells and HBEC30kt and HBEC3kt cells were grown in 96 well plates on day 1, treated serial dilutions of PPS1, PPS1D1, C462 and C462D1 on day 2, and viable cell count was measured using MTS reagent on day 3. […]"}, "[1]": {"assay": "Lipid ELISA-like binding assay", "protocol": "The direct binding of PPS1 to PS was tested. An ELISA-like assay was used. Two main lipids typically found on cell membrane, PS and PC, were immobilized separately on a 96-well plates and biotinylated PPS1 was incubated at an increasing concentration gradient. Presence of bound PPS1 was detected by HRP-streptavidin after appropriate blocking and washing. (FIG. 11A), PC was selected as the control because it is the most abundant neutral phospholipid found in the outer leaflet of the normal cell membranes. […] This indicates […] has specificity to PS over PC.\nELISA binding assay on PS and PC: PS and PC (Avanti Polar Lipids) were dissolved in hexane at 10 μg/ml concentration and added to Immulon 1B “U” bottom microtiter plates (Thermo) 50 μl/well. hexane was allowed to evaporate at room temp (in the hood). Plates were blocked by adding 200 μl 1% BSA in PBS to each well and incubated for 1 hour. Each well was washed with 3× w/200 μl PBS. Serial dilutions (0.5 μM to 0.0078 μM) of biotinylated PPS1 and PPS2 were dissolved in blocking buffer (100 μl/well) and incubated for 1 hr on shaker. Washed 5× w/200 μl PBS. Added 100 μl streptavidin-HRP (1:2000 in blocking buffer) to each well and incubated for 30 min. […] Stopped the reaction with 100 μl 0.18M H2SO4 Read OD at 490 nm.\nSince PS is selectively exposed on the surface of HCC4017 cells compared with HBEC30KT, it was examined if PPS1D1 (FIG. 9B and FIG. 72) binds to PS directly. In an ELISA-like assay, PS and PC were coated separately on 96-well plates, biotinylated PPS1D1 (FIG. 65) was introduced in a concentration gradient and the bound compound was detected using standard streptavidin-HRP system.\nLipids (Avanti Polar Lipids) were dissolved in hexane at 10 μg/ml and coated on to Immulon 1B “U” bottom microtiter plates (ThermoFisher, MA). […] Plates were washed with 5× PBS and binding was detected with streptavidin-HRP (1:2000 in blocking buffer) followed by 100 μl OPD (Sigma-Aldrich). The reaction was stopped with 100 μl 0.18M H2SO4 and absorbance was read at 490 nm using the spectrophotometer (Spectramax i3, Molecular Devices, CA)."}, "HBEC30KT cells": {"tested_on": "HBEC30KT cells", "assay": "MTS cell viability assay", "assay_type": "cell-based, human", "protocol": "as §1, §2"}},
  "note": "pKd: −log10 of the molar value. Entries after “also recorded” stand apart in the source; their conditions may differ. Positions of bridges follow the written chain, without caps; N, C: chain ends. Non-standard residues stand in square brackets, D forms with d. Residues, ends and D or L forms follow the SMILES beside them. Chains are numbered I, II in the order given. Gly(N-piperonyl) = O=C(O)CNCc1ccc2c(c1)OCO2; N(4-MeOBn)Gly = COc1ccc(CNCC(=O)O)cc1; Nrpe = C[C@@H](NCC(=O)O)c1ccccc1; Nlys = NCCCCNCC(=O)O",
  "data": [
    {"smiles": "COc1ccc(CN(CC(=O)N(CCCCN)CC(=O)N[C@@H](CCCCN)C(=O)N[C@H](CCCCN)C(=O)N[C@@H](CCSC)C(=O)NCCCC[C@H](NC(=O)[C@H](CCSC)NC(=O)[C@@H](CCCCN)NC(=O)[C@H](CCCCN)NC(=O)CN(CCCCN)C(=O)CN(Cc2ccc(OC)cc2)C(=O)CN(C(=O)CN(Cc2ccc3c(c2)OCO3)C(=O)CN[C@H](C)c2ccccc2)[C@H](C)c2ccccc2)C(N)=O)C(=O)CN(C(=O)CN(Cc2ccc3c(c2)OCO3)C(=O)CN[C@H](C)c2ccccc2)[C@H](C)c2ccccc2)cc1", "note": "[PPS1D1] (I: H-[Nrpe][Gly(N-piperonyl)][Nrpe][N(4-MeOBn)Gly][Nlys]K[dK]MK-NH2 / II: H-[Nrpe][Gly(N-piperonyl)][Nrpe][N(4-MeOBn)Gly][Nlys]K[dK]M; amide I:9-II:C; N-terminus assumed)", "values": [
      {"measurement": "effect on H460 cells", "setting": "H460 cells; MTS / cell proliferation, increasing concentrations", "value": "very potent in inhibiting growth"},
      {"measurement": "concentration at which most cytotoxicity was seen", "setting": "H460 cells; cell proliferation assay, H460", "value": "≥ 10", "unit": "µM"},
      {"measurement": "activity on normal HBEC3kt cells", "setting": "HBEC3kt cells", "value": "did not have any activity"},
      {"measurement": "binding to PC", "setting": "[1]; PC-coated ELISA plates", "value": "very high specificity over the PC"},
      {"measurement": "binding to PS", "setting": "[1]; PS-coated ELISA plates", "value": "strongest affinity"},
      {"measurement": "pKd", "setting": "[1]; PS-coated ELISA plates, biotinylated compound, streptavidin-HRP", "value": "~7.26"},
      {"measurement": "effect on normal HBEC30KT cells", "setting": "HBEC30KT cells; 1 and 20 μM", "value": "no effect"},
      {"measurement": "activity on normal HBEC30KT cells", "setting": "HBEC30KT cells; serial dilutions", "value": "did not have any activity; also recorded: no cytotoxicity"}
    ]}
  ]
}
